Data: patent publication US8334382B2, “Substituted biaryl piperazinyl-pyridine analogues” (Neurogen Corporation, priority 2004, dated 2012)

target: T1, human capsaicin receptor (Homo sapiens, UniProt Q8NER1); assay: Calcium mobilization assay, determination of antagonist activity; format: cell-based; details: capsaicin at EC50; cells expressing human capsaicin receptor; Example 6
T1 construct: expressed in transfected cells; host or cells: HEK293, stably transfected with pBK-CMV construct
Outline: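 IC50 is the antagonist level giving a 50% drop in the capsaicin (EC50) calcium signal, read by FLIPR in Fluo-3 AM-loaded stable HEK293 lines bearing full-length human receptor. Compounds at 1-5 µM final were preincubated 0.5-6 h, room temperature, dark, in KRH pH 7.4.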

T1 sequence (Q8NER1 whole entry): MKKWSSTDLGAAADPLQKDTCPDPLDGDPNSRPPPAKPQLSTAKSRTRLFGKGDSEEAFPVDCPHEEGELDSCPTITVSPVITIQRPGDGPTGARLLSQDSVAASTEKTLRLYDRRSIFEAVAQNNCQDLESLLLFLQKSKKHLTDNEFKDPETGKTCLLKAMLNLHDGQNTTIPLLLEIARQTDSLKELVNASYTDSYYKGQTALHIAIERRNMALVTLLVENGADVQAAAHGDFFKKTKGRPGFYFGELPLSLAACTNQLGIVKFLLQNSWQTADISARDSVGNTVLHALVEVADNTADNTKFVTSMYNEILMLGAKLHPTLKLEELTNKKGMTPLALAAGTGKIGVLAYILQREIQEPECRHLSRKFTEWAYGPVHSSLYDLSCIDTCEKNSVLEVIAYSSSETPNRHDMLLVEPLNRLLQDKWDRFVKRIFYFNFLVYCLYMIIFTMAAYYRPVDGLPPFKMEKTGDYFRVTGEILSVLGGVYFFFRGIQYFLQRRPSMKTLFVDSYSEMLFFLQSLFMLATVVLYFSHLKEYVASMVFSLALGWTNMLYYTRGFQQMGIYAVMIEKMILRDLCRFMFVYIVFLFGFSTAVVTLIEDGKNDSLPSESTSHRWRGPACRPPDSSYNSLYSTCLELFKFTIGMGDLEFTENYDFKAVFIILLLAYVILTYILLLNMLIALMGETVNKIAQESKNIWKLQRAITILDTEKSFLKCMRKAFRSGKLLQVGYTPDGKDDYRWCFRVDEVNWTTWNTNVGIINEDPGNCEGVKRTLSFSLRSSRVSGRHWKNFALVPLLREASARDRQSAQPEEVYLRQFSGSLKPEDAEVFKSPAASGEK

IC50 [nM] | SMILES
≤ 1000 | CCOCCCNC(=O)c1cnc(N2CCN(c3cc(-c4ccc(F)cc4)nc(N4CCCC4C)n3)CC2)c(C)c1 (centres unmarked) [Example 112, N-(3-ethoxypropyl)-6-{4-[6-(4-fluorophenyl)-2-(2-methylpyrrolidin-1-yl)pyrimidin-4-yl]piperazin-1-yl}-5-methylnicotinamide]
≤ 1000 | Cc1cc(C(=O)N2CCC(F)(F)CC2)cnc1N1CCN(c2cc(-c3ccc(F)cc3)nc(N3CCCC3C)n2)CC1 (centres unmarked) [Example 142, 4-(4-{5-[(4,4-difluoropiperidin-1-yl)carbonyl]-3-methylpyridin-2-yl}piperazin-1-yl)-6-(4-fluorophenyl)-2-(2-methylpyrrolidin-1-yl)pyrimidine]
≤ 1000 | C[C@@H]1CN(c2ncc(C(=O)NCCO)cc2Cl)CCN1c1cc(-c2ccccc2)nc(N2CCC[C@H]2CO)n1 [Example 166, 5-Chloro-N-(2-hydroxy-ethyl)-6-{4-[2-(2-(S)-hydroxymethyl-pyrrolidin-1-yl)-6-phenyl-pyrimidin-4-yl]-3-(R)-methyl-piperazin-1-yl}-nicotinamide]
≤ 1000 | CC1CCCN1c1nc(-c2ccc(F)cc2)cc(N2CCN(c3ncc(C(C)(C)O)cc3Cl)CC2)n1 (centres unmarked) [Example 147, 2-(5-Chloro-6-{4-[6-(4-fluoro-phenyl)-2-(2-methyl-pyrrolidin-1-yl)-pyrimidin-4-yl]-piperazin-1-yl}-pyridin-3-yl)-propan-2-ol]
≤ 1000 | NC(=O)c1cccnc1N1CCN(c2cc(-c3ccc(F)c(Cl)c3)nc(N3CCOCC3)n2)CC1 [Example 2, 2-{4-[6-(3-Chloro-4-fluoro-phenyl)-2-morpholin-4-yl-pyrimidin-4-yl]-piperazin-l-yl}-nicotinamide]
≤ 1000 | CCOCCNC(=O)c1cnc(N2CCN(c3cc(-c4ccc(F)cc4)nc(N4CCCC4C)n3)CC2)c(C)c1 (centres unmarked) [Example 119, N-(2-ethoxyethyl)-6-{4-[6-(4-fluorophenyl)-2-(2-methylpyrrolidin-1-yl)pyrimidin-4-yl]piperazin-1-yl}-5-methylnicotinamide]
≤ 1000 | C[C@@H]1CN(c2ncc(CCN(C)C)cc2Cl)CCN1c1cc(-c2ccc(F)c(Cl)c2)nc(N2CCC[C@H]2C)n1 [Example 186, 2-[5-chloro-6-((3R)-4-{6-(3-chloro-4-fluorophenyl)-2-[(2R)-2-methylpyrrolidin-1-yl]pyrimidin-4-yl}-3-methylpiperazin-1-yl)pyridin-3-yl]-N,N-dimethylethanamine]
≤ 1000 | CCOC(=O)c1cnc(N2CCN(c3cc(-c4ccccc4)nc(N4CCCC4C)n3)[C@H](C)C2)c(Cl)c1 (stereo partly drawn) [Example 41, 5-Chloro-6-{3-(R)-methyl-4-[2-(2-methyl-pyrrolidin-1-yl)-6-phenyl-pyrimidin-4-yl]-piperazin-1-yl}-nicotinic acid ethyl ester]
≤ 1000 | Cc1cc(OCCO)cnc1N1CCN(c2cc(-c3ccc(F)cc3)nc(N3CCC[C@H]3C)n2)[C@H](C)C1 (relative stereo) [Example 192, rel-2-({6-[(3R)-4-{6-(4-fluorophenyl)-2-[(2R)-2-methylpyrrolidin-1-yl]pyrimidin-4-yl}-3-methylpiperazin-1-yl]-5-methylpyridin-3-yl}oxy)ethanol]
≤ 1000 | Cc1cccc(-c2cc(N3CCN(c4ncc(CO)cc4C)C[C@H]3C)nc(N3CCCC3C)n2)c1 (stereo partly drawn) [Example 64, (5-Methyl-6-{3-(R)-methyl-4-[2-(2-methyl-pyrrolidin-1-yl)-6-m-tolyl-pyrimidin-4-yl]-piperazin-1-yl}-pyridin-3-yl)-methanol]

target: VR; assay: not given; details: binds to VR with no more than moderate affinity; cited from earlier work

SMILES | Ki [nM]
Cl.Cl.Cl.Cl.Cl.Cl.N.N.N.N.N.N.N.N.N.N.N.N.N.N.[O-2].[O-2].[Ru+3].[Ru+3].[Ru+4] [ruthenium red] | ≥ 140000
